According to US20220378802A1, “TREATMENT OF ALCOHOLIC HEPATITIS” (Durect Corporation, priority 2019, published 2022):
“Also recorded” adds a separate entry of the source.

Test system: patients with alcoholic hepatitis
Test: Pharmacodynamic signals (Lille score, MELD, bilirubin, survival) in Phase 2a trial
Type: in vivo, human
Method: As described in more detail below, a total of 19 patients were enrolled into an open-label Phase 2a multi-center trial, of whom 15 had Maddrey's Discriminant Function (MDF) ≥32 (Severe Alcoholic Hepatitis (SAH)), 12 had MELD scores at 21-30, and 11 had baseline serum bilirubin levels >8 mg/dL. All patients received IV infused 25HC3S (at 30, 90, or 150 mg) on Day 1 and Day 4 (if still hospitalized), and were followed for 28-days. The final enrollment was 19 patients comprised of: 8 patients (4 moderate and 4 severe) dosed at 30 mg, 7 patients (3 moderate and 4 severe) dosed at 90 mg, and 4 patients (4 severe) dosed at 150 mg.
• Study Drug A 25HC3S sodium salt solution contained: • 30 mg/mL 25HC3S sodium salt; • 240 mg/mL hydroxypropyl-beta-cyclodextrin; and • 50 mmole phosphate buffer • The 25HC3S sodium salt solution was diluted in 100 mL 5% dextrose or 0.9% sodium chloride infusion solution: • Dose 1: 30 mg of 25HC3S sodium salt in 100 mL 5% dextrose or 0.9% sodium chloride • Dose 2: 90 mg of 25HC3S sodium salt in 100 mL 5% dextrose or 0.9% sodium chloride • Dose 3: 150 mg of 25HC3S sodium salt in 100 mL 5% dextrose or 0.9% sodium chloride • 25HC3S sodium salt was administered by slow intravenous infusion over 2 hrs (50 mL/h) until the entire dose is given at Day 1 and Day 4. If a patient met the hospital discharge criteria prior to the second dose, the patient received only one dose instead of two doses. • Study Procedure The study was conducted in two parts. Part A included patients with MELD scores of 11-20 (moderate AH patients), and Part B included patients with MELD of scores 21-30. The doses of 25HC3S sodium salt administered were 30 mg and 90 mg for Part A and 30 mg, 90 mg and 150 mg for Part B, with 4 patients per dose group per Part (except for only 3 patients in the 90 mg cohort of Part A). All patients were followed to Day 28. • The study started in 4 moderate AH patients (Part A) at 30 mg dose level. After completing the dosing, a Dose Escalation Committee (DEC) reviewed safety, tolerability and pharmacokinetic (PK) data from all 4 patients and determined that it was safe to move forward to dose 4 severe AH patients (Part B) at the same dose level, 30 mg, as well as escalating the dose level to 90 mg in moderate patients (Part A). The same dose escalation procedure was then conducted in Part B until all 4 patients received 150 mg doses. • A flow diagram of the study is depicted in FIG. 2. Each dose cohort enrolled up to 4 subjects. Study subjects received up to 2 doses of 25HC3S sodium salt. The first dose was administered on Day 1 and, if still hospitalized, the second dose was administered on Day 4. A pharmacokinetic (PK) sample was collected at: Time 0 (pre-dose), 1 hour post-dose initiation, 2 hours (end of infusion), 3 hours post-dose initiation, 4 hours post-dose initiation, 8 hours post-dose initiation, 12 hours post-dose initiation, 24-hours post-dose initiation and 50 hours post-dose initiation.
• 1. Patients with alcoholic hepatitis defined in this clinical trial as: • a. History of heavy alcohol abuse: >40 g/day in females or >60 g/day in males for a minimum period of 6 months, AND • b. Consumed alcohol within 12 weeks of entry into the study, AND • c. Serum bilirubin >3 mg/dL AND AST>ALT, but less than 300 U/L, AND • d. MELD score between 11-30, inclusive A listing of the baseline laboratory characteristics of the subjects of each cohort is shown in the Table below. […]

[1] = All patients with 30 or 90 mg (14), Day 7
[2] = Baseline bilirubin >8 mg/dL (11), Day 7
[3] = Baseline bilirubin >8 mg/dL with 30 or 90 mg (8), Day 7
[4] = MELD 21-30 with 30 or 90 mg (8), Day 7
[5] = SAH with 30 or 90 mg (11), Day 7

## C[C@H](CCCC(C)(C)O)[C@H]1CC[C@H]2[C@@H]3CC=C4C[C@@H](OS(=O)(=O)O)CC[C@]4(C)[C@H]3CC[C@]12C [25HC3S, 5-cholesten-3,25-diol, 3-sulfate]
18 AH patients who returned for Day 7 visit
  patients with a Lille score below 0.45 (number of patients): 16/18
19 patients
  reductions from baseline in bilirubin (day 7 and 28) and MELD (day 28) compared with University of Louisville historical control: statistically significantly greater reductions
28-day follow-up period, all patients
  survival rate: 100%
All Patients (18), Day 7
  Responders (Lille score <0.45): 89%
[1]
  Lille Median (1st, 3rd quartile): 0.05 (0.04, 0.19)
  Responders (Lille score <0.45): 100%
[2]
  Lille Median (1st, 3rd quartile): 0.10 (0.05, 0.20)
  Responders (Lille score <0.45): 82%
[3]
  Lille Median (1st, 3rd quartile): 0.10 (0.05, 0.19)
  Responders (Lille score <0.45): 100%
Day 7, one or two doses
  serum bilirubin levels: significantly reduced
Day 28, one or two doses
  MELD scores: significantly reduced
MELD 21-30 (12), Day 7
  Lille Median (1st, 3rd quartile): 0.19 (0.11, 0.25)
  Responders (Lille score <0.45): 83%
[4]
  Lille Median (1st, 3rd quartile): 0.19 (0.10, 0.19)
  Responders (Lille score <0.45): 100%
SAH (15), Day 7
  Lille Median (1st, 3rd quartile): 0.19 (0.05, 0.22)
SAH patients treated with 30 or 90 mg, Day 28, p=0.01
  median reduction of MELD from baseline: −19.0%
SAH patients, Day 28, 1 or 2 doses, p=0.01
  MELD score change from baseline: −17.5%
[5]
  Lille Median (1st, 3rd quartile): 0.12 (0.05, 0.19)
  Responders (Lille score <0.45): 100%
SAH, MDF≥32 (15), Day 7
  Responders (Lille score <0.45): 87%
All AH patients (n=18), Day 7
  reduction from baseline of serum total bilirubin levels: −14%
All patients, including SAH
  survival through 28-day follow-up period: survived
All subjects administered 30 mg and 90 mg (FIG. 6)
  Lille score at Day 7: less than 0.45
p<0.0001
  Lille scores compared with published historical data (Louvet et al., 145 AH patients): significantly lower; also recorded: significantly better
p=0.005
  Lille scores compared with University of Louisville historical control (standard of care): statistically significantly lower
Patients with baseline bilirubin >8.0 mg/dL, Day 7, p=0.02
  serum bilirubin change: −25.1%
Two of the subjects having severe AH administered 150 mg (FIG. 6)
  Lille score at Day 7: greater than 0.45
